Among the data in US10295551B2, “Development and use of fluorescent probes of unbound bilirubin” (Alan Marc Kleinfeld, priority 2011, dated 2019) are Kd values, retold here.

The term Kd denotes the free concentration of one partner at which half of the binding sites on the other are occupied at equilibrium, for simple one-to-one binding.

Each structure is given as a SMILES string.

Assay [1] addresses T1, rI-FABP (SEQ ID NO: 3) variant L24P19 C7 K27K 24C, 14R 18L 24C 38V 60R 73F 106C 115R 117D (Rattus norvegicus, UniProt P02693, A74F/L39V/L73A/M19L/N25C/Q116R/R107C/V61R/Y118D/Y15R).
T1 construct: made in house
Put plainly: bilirubin binding to L24P19C7 24C probe. Particulars: Table 5, acrylodan. The procedure:
(§1) Also described are analytical/mathematical methods for calibrating and using the bilirubin probes. Bilirubin probes are calibrated to determine their binding affinity for bilirubin (dissociation constant Kd) under conditions, such as temperature, pH and solution composition, that correspond to samples in which it is desired to know the unbound bilirubin concentration. Binding isotherms are performed in aqueous buffer by measuring the change in fluorescence of the bilirubin probes in response to increasing bilirubin concentrations (“titration data”). The set of fluorescence responses at each bilirubin concentration are fitted with an appropriate equation (“calibration equation”) that correctly describes the fluorescence response as a function of the bilirubin concentration, the probe concentration, specific spectroscopic characteristics, and the Kd.
(§2) . […] The optimal probe performance was obtained with cysteine at positions 25 or 26.

Assay [2] has as its target T2, rI-FABP (SEQ ID NO: 3) variant L2P14 F7-KR14 - K27C, KR14-18G 27C 31M 72A (Rattus norvegicus, UniProt P02693, G32M/K101R/K126R/K17R/K21R/K28C/K30R/K38R/K47R/K51R/K89R/K8R/K93R/K95R/L73A/M19G).
T2 construct: made in house
Put plainly: bilirubin binding to L2P14F7-KR14-K27C probe. Particulars: Table 5, acrylodan. The procedure:
as §1

In assay [3] the target is T3, rI-FABP (SEQ ID NO: 3) variant L24P19 C7 K27K 30C, 14R 18L 30C 38V 60R 73F 106C 115R 117D (Rattus norvegicus, UniProt P02693, A74F/L31C/L39V/L73A/M19L/Q116R/R107C/V61R/Y118D/Y15R).
T3 construct: made in house
As to the kind of experiment: bilirubin binding to L24P19C7 30C probe. As to conditions: Table 5, acrylodan. The procedure:
as §1, §2

The target of assay [4] is T4, rI-FABP (SEQ ID NO: 3) variant BL10P10 D10, 14F 18L 27C 38M 60Y 73F 106V 115R 117D (Rattus norvegicus, UniProt P02693, A74F/K28C/L39M/L73A/M19L/Q116R/R107V/V61Y/Y118D/Y15F).
T4 construct: made in house
As to the kind of experiment: bilirubin binding to BL10P10D10 probe. As to conditions: Table 5, acrylodan. The procedure:
as §1

The target of assay [5] is T5, rI-FABP (SEQ ID NO: 3) variant L24P19 C7 K27A, 14R 18L 27A 38V 60R 73F 106C 115R 117D (Rattus norvegicus, UniProt P02693, A74F/K28A/L39V/L73A/M19L/Q116R/R107C/V61R/Y118D/Y15R).
T5 construct: made in house
Put plainly: bilirubin binding to L24P19C7 K27A probe. As to conditions: Table 5, acrylodan. The procedure:
as §1

Assay [6] addresses T6, rI-FABP (SEQ ID NO: 3) variant BL22P1B11, MGI-KR14-14R 18L 25C 27A 38V 60R 73F 106L 115R 117D, SEQ ID NO: 35 (Rattus norvegicus, UniProt P02693, A74F/K101R/K126R/K17R/K21R/K28A/K30R/K38R/K47R/K51R/K89R/K8R/K93R/K95R/L39V/L73A/M19L/Q116R/R107L/V26C/V61R/Y118D/Y15R).
T6 construct: made in house
It is filed as binding. Particulars: Table 5, Alexa Fluor 680 C2-maleimide; read-out: Kd.

The target of assay [7] is T7, rI-FABP (SEQ ID NO: 3) variant L24P19 C7 K27K 22C, 14R 18L 22C 38V 60R 73F 106C 115R 117D (Rattus norvegicus, UniProt P02693, A74F/G23C/L39V/L73A/M19L/Q116R/R107C/V61R/Y118D/Y15R).
T7 construct: made in house
Put plainly: bilirubin binding to L24P19C7 22C probe. Particulars: Table 5, acrylodan. On the procedure: as §1, §2

The target in assay [8] is T8, rI-FABP (SEQ ID NO: 3) variant L24P19 C7, 14R 18L 27A 38V 60R 73F 106A 115R 117D (Rattus norvegicus, UniProt P02693, A74F/K28A/L39V/L73A/M19L/Q116R/R107A/V61R/Y118D/Y15R).
T8 construct: Residues 27 and 106 disputed: row prints 27A 106A
As to the kind of experiment: bilirubin binding to L24P19 C7 as listed in Table 6. As to conditions: Table 6, acrylodan. On the procedure: as §1

Assay [9] has as its target rI-FABP (SEQ ID NO: 3) variant L2P14 F7, 18G 31M 72A (Rattus norvegicus, UniProt P02693, G32M/L73A/M19G). Put plainly: bilirubin binding to L2P14F7 probe. As to conditions: Table 6, acrylodan. The procedure: as §1
Assay [10] addresses T9, rat intestinal fatty acid binding protein (rI-FABP, SEQ ID NO: 3) variant L24P19C7, 14R 18L 38V 60R 73F 106C 115R 117D, SEQ ID NO: 36 (Rattus norvegicus, UniProt P02693, A74F/L39V/L73A/M19L/Q116R/R107C/V61R/Y118D/Y15R).
T9 construct: made in house
As to the kind of experiment: bilirubin binding to L24P19C7 probe (fluorescence titration). On the procedure: Also described are analytical/mathematical methods for calibrating and using the bilirubin probes. Bilirubin probes are calibrated to determine their binding affinity for bilirubin (dissociation constant Kd) under conditions, such as temperature, pH and solution composition, that correspond to samples in which it is desired to know the unbound bilirubin concentration. Binding isotherms are performed in aqueous buffer by measuring the change in fluorescence of the bilirubin probes in response to increasing bilirubin concentrations (“titration data”). The set of fluorescence responses at each bilirubin concentration are fitted with an appropriate equation (“calibration equation”) that correctly describes the fluorescence response as a function of the bilirubin concentration, the probe concentration, specific spectroscopic characteristics, and the Kd. […] Bilirubin probes are derived from a rat intestinal fatty acid binding protein (rI-FABP) as described previously for unbound FFA (FFAu) probes in U.S. Pat. No. 7,601,510, U.S. publication 2010/0298162 and [Huber A H, Zhu […] and […]. Fluorescence Sensor for the Quantification of Unbound Bilirubin Concentrations. Clin Chem 58: 869-876, 2012; Huber […], Zhu B and […]. Fatty acid-specific fluorescent probes and their use in resolving mixtures of different unbound free fatty acids in equilibrium with albumin. […]

T9 sequence (P02693 with tags, fused parts or gaps Y15R/M19L/L39V/V61R/L73A/A74F/R107C/Q116R/Y118D): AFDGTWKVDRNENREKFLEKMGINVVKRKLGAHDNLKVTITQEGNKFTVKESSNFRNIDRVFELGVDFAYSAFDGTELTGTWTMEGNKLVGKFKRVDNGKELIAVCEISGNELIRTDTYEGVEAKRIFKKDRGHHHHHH
T1 sequence (P02693 with tags, fused parts or gaps Y15R/M19L/N25C/L39V/V61R/L73A/A74F/R107C/Q116R/Y118D): as the sequence (P02693 with tags, fused parts or gaps Y15R/M19L/L39V/V61R/L73A/A74F/R107C/Q116R/Y118D) above, with N24C counted along it
T3 sequence (P02693 with tags, fused parts or gaps Y15R/M19L/L31C/L39V/V61R/L73A/A74F/R107C/Q116R/Y118D): as the sequence (P02693 with tags, fused parts or gaps Y15R/M19L/L39V/V61R/L73A/A74F/R107C/Q116R/Y118D) above, with L30C counted along it
T2 sequence (P02693 with tags, fused parts or gaps with the stated changes): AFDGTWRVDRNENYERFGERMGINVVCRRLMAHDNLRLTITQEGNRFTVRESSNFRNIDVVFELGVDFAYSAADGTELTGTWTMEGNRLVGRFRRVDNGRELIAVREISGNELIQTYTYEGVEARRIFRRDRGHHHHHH
T8 sequence (P02693 with tags, fused parts or gaps Y15R/M19L/K28A/L39V/V61R/L73A/A74F/R107A/Q116R/Y118D): as the sequence (P02693 with tags, fused parts or gaps Y15R/M19L/L39V/V61R/L73A/A74F/R107C/Q116R/Y118D) above, with K27A, C106A counted along it
T5 sequence (P02693 with tags, fused parts or gaps Y15R/M19L/K28A/L39V/V61R/L73A/A74F/R107C/Q116R/Y118D): as the sequence (P02693 with tags, fused parts or gaps Y15R/M19L/L39V/V61R/L73A/A74F/R107C/Q116R/Y118D) above, with K27A counted along it
Sequence of rI-FABP (SEQ ID NO: 3) variant L2P14 F7, 18G 31M 72A (P02693 with tags, fused parts or gaps M19G/G32M/L73A): as the sequence (P02693 with tags, fused parts or gaps Y15R/M19L/L39V/V61R/L73A/A74F/R107C/Q116R/Y118D) above, with R14Y, L18G, G31M, V38L, R60V, F73A, C106R, R115Q, D117Y counted along it
T4 sequence (P02693 with tags, fused parts or gaps Y15F/M19L/K28C/L39M/V61Y/L73A/A74F/R107V/Q116R/Y118D): as the sequence (P02693 with tags, fused parts or gaps Y15R/M19L/L39V/V61R/L73A/A74F/R107C/Q116R/Y118D) above, with R14F, K27C, V38M, R60Y, C106V counted along it
T7 sequence (P02693 with tags, fused parts or gaps Y15R/M19L/G23C/L39V/V61R/L73A/A74F/R107C/Q116R/Y118D): as the sequence (P02693 with tags, fused parts or gaps Y15R/M19L/L39V/V61R/L73A/A74F/R107C/Q116R/Y118D) above, with G22C counted along it
T6 sequence (P02693 with tags, fused parts or gaps with the stated changes): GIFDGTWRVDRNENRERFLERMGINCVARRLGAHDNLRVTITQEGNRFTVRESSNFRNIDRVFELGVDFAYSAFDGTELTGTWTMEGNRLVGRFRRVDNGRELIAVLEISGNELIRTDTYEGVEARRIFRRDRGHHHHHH

Consider `C=CC1=C(C)/C(=C/c2[nH]c(Cc3[nH]c(/C=C4\NC(=O)C(C)=C4C=C)c(C)c3CCC(=O)O)c(CCC(=O)O)c2C)NC1=O` [bilirubin], for which the equilibrium dissociation constant (Kd) in [1] worked out at 89 nM; in assay [2], 530 nM; in [3] it was 26 nM; in assay [4], 400 nM; in assay [5], 21 nM; in assay [6] it was 110 nM. The Kd in assay [7] came to 71 nM; in assay [8] it was 33 nM; in assay [9], 69 nM; in assay [10] (22° C., aqueous bilirubin, acrylodan label), 22 nM; in [10] (Table 5, acrylodan) it was 35 nM.
